This passage reports IC50 results from patent publication US11306075B2, “Benzofuran, benzothiophene, and indole analogs that inhibit the formation of tau oligomers and their method of use” (OLIGOMERIX INC., priority 2016, dated 2022).

Where a name gives a salt, the structure may show the parent alone.

recombinant human tau 4R2N, sequence (P10636 other isoform, or with tags, fused parts or gaps): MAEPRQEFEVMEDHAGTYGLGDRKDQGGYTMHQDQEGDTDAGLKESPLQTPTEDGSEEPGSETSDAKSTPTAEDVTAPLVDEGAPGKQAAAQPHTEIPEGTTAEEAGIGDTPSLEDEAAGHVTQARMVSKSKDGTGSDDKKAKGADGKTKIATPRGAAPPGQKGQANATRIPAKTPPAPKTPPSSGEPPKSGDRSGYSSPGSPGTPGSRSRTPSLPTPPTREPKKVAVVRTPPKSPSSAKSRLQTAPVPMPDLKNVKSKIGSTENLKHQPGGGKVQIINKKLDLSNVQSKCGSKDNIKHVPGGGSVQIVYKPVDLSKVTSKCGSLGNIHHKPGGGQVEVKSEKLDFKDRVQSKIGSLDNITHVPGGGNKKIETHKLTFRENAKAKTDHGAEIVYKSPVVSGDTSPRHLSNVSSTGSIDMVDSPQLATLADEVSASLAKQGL

In this experiment the target is recombinant human tau 4R2N (Homo sapiens (Human), UniProt P10636). The experiment in a line: Confirmatory Assay (CONFA), SDS-PAGE quantification of tau monomer and oligomers. It is filed as biochemical. Particulars: tau target 300 nM, Tris-HCl pH 7.4, room temperature 3 hours, compound 0.098 uM-50 uM. As for the experimental part:
Bacterial recombinant human tau 4R2N (the largest isoform of tau in the central nervous system, 441 amino acids in length, Seq ID 1) constructs with either 6×-His or StrepII N-terminal epitope tags were purified from bacterial lysate using denaturing conditions to prepare tau in its monomeric form.
CONFA Assay: Confirmatory Assay (CONFA) used as a secondary screen for confirming the mechanism of action of compounds identified as hits using the ALA assay. The assay is performed using a similar procedure as ALA except that it utilizes SDS-PAGE for visualization and quantification of tau monomer and aggregated species (dimer, trimer, tetramer, pentamer, etc.). Only a single construct of tau without epitope tags is necessary, but the assay can use the same target prepared for the ALA assay also.
For the CONFA assay, Tau target (300 nM) was prepared in buffer (Tris-HCl pH 7.4) and was incubated at room temperature for 3 hours with vehicle control (DMSO) and a dose range of a compound of the disclosure (0.098 uM-50 uM). Samples were mixed with an equal volume of 2×SDS sample buffer (4% SDS, 20% glycerol, 0.004% bromphenol blue, 125 mM Tris HCl, pH 7.0) to resolve tau monomer and disulfide-finked oligomers on 4-20% gradient polyacrylamide gels (Biorad) along with positive control (non-oligomerized tau target). The gels were stained with Oriole Fluorescent Gel Stain (BioRad) and imaged using the FluorChem R system (Protein Simple). AlphaView software (Protein Simple) was used for quantification of tau monomer and oligomers.
`COc1cccc(-c2ccc3oc(CCC(C)=O)c(-c4ccc(C)o4)c3c2)c1` [Ex. 5, 4-(5-(3-Methoxyphenyl)-3-(5-methylfuran-2-yl)benzofuran-2-yl)butan-2-one]: the IC50 was 0.364 µM.

Turning to `COc1cc(-c2ccc3c(-c4ccc(C)o4)c(CCC(C)=O)oc3c2)ccn1` [Ex. 23, 4-(6-(2-Methoxypyridin-4-yl)-3-(5-methylfuran-2-yl)benzofuran-2-yl)butan-2-one], the half-maximal inhibitory concentration (IC50) is 7.18 µM.

As to `Cc1ccc(-c2c(CCC(C)(C)O)oc3ccc(Br)cc23)o1` [Ex. 15, 4-(5-Bromo-3-(5-methylfuran-2-yl)benzofuran-2-yl)-2-methylbutan-2-ol], the 50% inhibitory concentration (IC50) came to 1.32 µM.

In the case of `COc1ccc(-c2ccc3oc(CCC(C)=O)c(-c4ccc(C)o4)c3c2)cn1` [Ex. 2, 4-(5-(6-Methoxypyridin-3-yl)-3-(5-methylfuran-2-yl)benzofuran-2-yl)butan-2-one], the IC50 came to 4.27 µM.

In the case of `Cc1ccc(C(C)(O)CCc2oc3ccc(Br)cc3c2-c2ccc(C)o2)cc1` (stereo not shown) [Ex. 16, 4-(5-Bromo-3-(5-methylfuran-2-yl)benzofuran-2-yl)-2-p-tolylbutane-2-ol], the half-inhibitory concentration (IC50) stood at 1.31 µM.

As to `CC(=O)CCc1oc2ccc(-c3cncnc3)cc2c1-c1ccc(C)cc1` [Ex. 29, 4-(5-(pyrimidin-5-yl)-3-p-tolylbenzofuran-2-yl)butan-2-one, di HCl Salt], the IC50 was 7.38 µM.

Take `CC(=O)CCc1oc2ccc(-c3cccs3)cc2c1-c1ccc(C)o1` [Ex. 8, 4-(3-(5-Methylfuran-2-yl)-5-(thiophen-2-yl)benzofuran-2-yl)butan-2-one]: the 50% inhibitory concentration (IC50) amounted to 5.57 µM.

Take `CC(=O)CCc1oc2cc(-c3ccncc3)ccc2c1-c1ccc(C)o1` [Ex. 22, 4-(3-(5-Methylfuran-2-yl)-6-(pyridin-4-yl)benzofuran-2-yl)butan-2-one]: the IC50 came to 7.57 µM.

As for `Cc1ccc(-c2c(CCC(=O)N3CCC(O)CC3)oc3ccc(Br)cc23)o1` [Ex. 13, 3-[5-Bromo-3-(5-methyl-furan-2-yl)-benzofuran-2-yl]-1-(4-hydroxy-piperidin-1-yl)-propan-1-one], the IC50 is 3.23 µM.

As for `CC(=O)CCc1oc2ccc(-c3cccnc3)cc2c1-c1ccc(C)o1` [Ex. 3, 4-(3-(5-Methylfuran-2-yl)-5-(pyridin-3-yl)benzofuran-2-yl)butan-2-one], the IC50 turned out to be 37.1 µM.

For `CC(=O)CCc1oc2cc(-c3cccnc3)ccc2c1-c1ccc(C)o1` [Ex. 24, 4-(3-(5-methylfuran-2-yl)-6-(pyridin-3-yl)benzofuran-2-yl)butan-2-one], the IC50 stood at 11.8 µM.

On to `CC(=O)CCc1oc2cc(-c3cncnc3)ccc2c1-c1ccc(C)o1` [Ex. 30, 4-(3-(5-methylfuran-2-yl)-6-(pyrimidin-5-yl)benzofuran-2-yl)butan-2-one, di HCl Salt], for which the half-maximal inhibitory concentration (IC50) worked out at 20.4 µM.

In the case of `COc1ccc(-c2ccc3c(-c4ccc(C)o4)c(CCC(C)=O)oc3c2)cn1` [Ex. 28, 4-(6-(6-Methoxypyridin-3-yl)-3-(5-methylfuran-2-yl)benzofuran-2-yl)butan-2-one], the IC50 worked out at 17.5 µM.

Consider `CC(=O)CCc1oc2cc(-c3cccnc3)ccc2c1-c1ccc(F)cc1` [Ex. 31, 4-(3-(4-fluorophenyl)-6-(pyridin-3-yl)benzofuran-2-yl)butan-2-one HCl Salt], for which the half-inhibitory concentration (IC50) was 9.28 µM.

With `CC(=O)CCc1oc2ccc(-c3cccc(O)c3)cc2c1-c1ccc(C)o1` [Ex. 4, 4-(5-(3-Hydroxyphenyl)-3-(5-methylfuran-2-yl)benzofuran-2-yl)butan-2-one], the half-maximal inhibitory concentration (IC50) came to 24.1 µM.

`Cc1ccc(-c2c(CCC(=O)O)oc3ccc(Br)cc23)o1` [Ex. 12, 3-[5-Bromo-3-(5-methyl-furan-2-yl)-benzofuran-2-yl]-propionic Acid]: the IC50 came to 22.5 µM.

As a reminder, the IC50 is the concentration needed to halve the response being measured.
